Measurements reported in PubChem BioAssay AID1963964 (Molecular Pharmacology Branch, DTP, NCI, 2024).
Values belong to the molecule of their own block, whether it stands above or below them.

Test system: 997726-040-R-J2-PDC tumor spheroids, viability
Test: Anticancer human tumor 997726-040-R-J2-PDC patient-derived squamous cell lung carcinoma cell line growth inhibition [PI3K]
Conditions: spheroids with HUVEC and MSC; for IC50: curve of first compound; for viability, T/C: stronger effect = lower value
Procedure, shortened: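 We assembled tumor spheroids that included a stromal compartment of HUVEC and MSCs, then exposed them to targeted agents alone and together with PI3K pathway inhibitors. Concentration series descended by half-log from clinically achievable Cmax levels. Viability served as the endpoint.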

[1] = second compound 0.0316 µM, first compound 0.0316 µM
[2] = second compound 0.0316 µM, first compound 0.1 µM
[3] = second compound 0.0316 µM, first compound 0.316 µM
[4] = second compound 0.0316 µM, first compound 1 µM
[5] = second compound 0.0316 µM, first compound 3.16 µM
[6] = second compound 0.0316 µM, first compound 10 µM
[7] = second compound 0.1 µM, first compound 0.0316 µM
[8] = second compound 0.1 µM, first compound 0.1 µM
[9] = second compound 0.1 µM, first compound 0.316 µM
[10] = second compound 0.1 µM, first compound 1 µM
[11] = second compound 0.1 µM, first compound 3.16 µM
[12] = second compound 0.1 µM, first compound 10 µM
[13] = second compound 0.316 µM, first compound 0.0316 µM
[14] = second compound 0.316 µM, first compound 0.1 µM
[15] = second compound 0.316 µM, first compound 0.316 µM
[16] = second compound 0.316 µM, first compound 1 µM
[17] = second compound 0.316 µM, first compound 3.16 µM
[18] = second compound 0.316 µM, first compound 10 µM
[19] = second compound 1 µM, first compound 0.0316 µM
[20] = second compound 1 µM, first compound 0.1 µM
[21] = second compound 1 µM, first compound 0.316 µM
[22] = second compound 1 µM, first compound 1 µM
[23] = second compound 1 µM, first compound 3.16 µM
[24] = second compound 1 µM, first compound 10 µM
[25] = second compound 3.16 µM, first compound 0.0316 µM
[26] = second compound 3.16 µM, first compound 0.1 µM
[27] = second compound 3.16 µM, first compound 0.316 µM
[28] = second compound 3.16 µM, first compound 1 µM
[29] = second compound 3.16 µM, first compound 3.16 µM
[30] = second compound 3.16 µM, first compound 10 µM
[31] = second compound 10 µM, first compound 0.0316 µM
[32] = second compound 10 µM, first compound 0.1 µM
[33] = second compound 10 µM, first compound 0.316 µM
[34] = second compound 10 µM, first compound 1 µM
[35] = second compound 10 µM, first compound 3.16 µM
[36] = second compound 10 µM, first compound 10 µM
[37] = second compound 0.0316 µM, first compound 0.00316 µM
[38] = second compound 0.0316 µM, first compound 0.01 µM
[39] = second compound 0.1 µM, first compound 0.00316 µM
[40] = second compound 0.1 µM, first compound 0.01 µM
[41] = second compound 0.316 µM, first compound 0.00316 µM
[42] = second compound 0.316 µM, first compound 0.01 µM
[43] = second compound 1 µM, first compound 0.00316 µM
[44] = second compound 1 µM, first compound 0.01 µM
[45] = second compound 3.16 µM, first compound 0.00316 µM
[46] = second compound 3.16 µM, first compound 0.01 µM
[47] = second compound 10 µM, first compound 0.00316 µM
[48] = second compound 10 µM, first compound 0.01 µM
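Also: spheroids exposed to compounds for seven days before readout.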

IC50 (second compound 0.0316 µM): 269 nM
IC50 (second compound 0.1 µM): 269 nM
IC50 (second compound 0.316 µM): 120 nM
IC50 (second compound 1 µM): < 31.6 nM
IC50 (second compound 3.16 µM): < 31.6 nM
IC50 (second compound 10 µM): < 31.6 nM
SMILES: CC(C)NCC(C(=O)N1CCN(c2ncnc3c2C(C)CC3O)CC1)c1ccc(Cl)cc1 (stereo not drawn) + Cc1nc(NC(=O)N2CCCC2C(N)=O)sc1-c1ccnc(C(C)(C)C(F)(F)F)c1
viability, T/C [1]: 73.4%
viability, T/C [2]: 65.9%
viability, T/C [3]: 47.7%
viability, T/C [4]: 23.8%
viability, T/C [5]: 12.7%
viability, T/C [6]: 8.8%
viability, T/C [7]: 71.6%
viability, T/C [8]: 66.8%
viability, T/C [9]: 46.6%
viability, T/C [10]: 25.9%
viability, T/C [11]: 15.2%
viability, T/C [12]: 10.6%
viability, T/C [13]: 55.9%
viability, T/C [14]: 52.5%
viability, T/C [15]: 39%
viability, T/C [16]: 22.4%
viability, T/C [17]: 11.2%
viability, T/C [18]: 9.52%
viability, T/C [19]: 49.5%
viability, T/C [20]: 37.2%
viability, T/C [21]: 34%
viability, T/C [22]: 21%
viability, T/C [23]: 10.5%
viability, T/C [24]: 6.76%
viability, T/C [25]: 33.2%
viability, T/C [26]: 27.5%
viability, T/C [27]: 25%
viability, T/C [28]: 16.5%
viability, T/C [29]: 7.98%
viability, T/C [30]: 4.28%
viability, T/C [31]: 15.8%
viability, T/C [32]: 10.9%
viability, T/C [33]: 10.7%
viability, T/C [34]: 5.86%
viability, T/C [35]: 3.95%
viability, T/C [36]: 3.36%

IC50 (second compound 0.0316 µM): > 1000 nM
IC50 (second compound 0.1 µM): 466 nM
IC50 (second compound 0.316 µM): 7.34 nM
IC50 (second compound 1 µM): < 3.16 nM
IC50 (second compound 3.16 µM): < 3.16 nM
IC50 (second compound 10 µM): < 3.16 nM
SMILES: CCN1CCN(Cc2ccc(Nc3ncc(F)c(-c4cc(F)c5nc(C)n(C(C)C)c5c4)n3)nc2)CC1 + Cc1nc(NC(=O)N2CCCC2C(N)=O)sc1-c1ccnc(C(C)(C)C(F)(F)F)c1
viability, T/C [37]: 82.8%
viability, T/C [38]: 79.5%
viability, T/C [1]: 61.5%
viability, T/C [2]: 69.5%
viability, T/C [3]: 58.3%
viability, T/C [4]: 59.8%
viability, T/C [39]: 76.7%
viability, T/C [40]: 71.1%
viability, T/C [7]: 67.3%
viability, T/C [8]: 55.2%
viability, T/C [9]: 52.3%
viability, T/C [10]: 46.3%
viability, T/C [41]: 52.5%
viability, T/C [42]: 51.8%
viability, T/C [13]: 45%
viability, T/C [14]: 39%
viability, T/C [15]: 37.1%
viability, T/C [16]: 41.1%
viability, T/C [43]: 40.8%
viability, T/C [44]: 39.5%
viability, T/C [19]: 37%
viability, T/C [20]: 30.9%
viability, T/C [21]: 29%
viability, T/C [22]: 33.8%
viability, T/C [45]: 29.9%
viability, T/C [46]: 27%
viability, T/C [25]: 26%
viability, T/C [26]: 22.9%
viability, T/C [27]: 23.4%
viability, T/C [28]: 19.5%
viability, T/C [47]: 16.9%
viability, T/C [48]: 12.3%
viability, T/C [31]: 10.3%
viability, T/C [32]: 10.9%
viability, T/C [33]: 11.9%
viability, T/C [34]: 11.2%

IC50 (second compound 0.0316 µM): > 10000 nM
IC50 (second compound 0.1 µM): > 10000 nM
IC50 (second compound 0.316 µM): > 10000 nM
IC50 (second compound 1 µM): 58.9 nM
IC50 (second compound 3.16 µM): < 31.6 nM
IC50 (second compound 10 µM): < 31.6 nM
SMILES: C[C@@H](NC(=O)c1ncnc(N)c1Cl)c1ncc(C(=O)Nc2cc(C(F)(F)F)c(Cl)cn2)s1 + Cc1nc(NC(=O)N2CCCC2C(N)=O)sc1-c1ccnc(C(C)(C)C(F)(F)F)c1
viability, T/C [1]: 101%
viability, T/C [2]: 115%
viability, T/C [3]: 111%
viability, T/C [4]: 107%
viability, T/C [5]: 102%
viability, T/C [6]: 68.2%
viability, T/C [7]: 96%
viability, T/C [8]: 97.5%
viability, T/C [9]: 99.5%
viability, T/C [10]: 83.9%
viability, T/C [11]: 66.3%
viability, T/C [12]: 60.2%
viability, T/C [13]: 64.7%
viability, T/C [14]: 62.4%
viability, T/C [15]: 66.8%
viability, T/C [16]: 76.3%
viability, T/C [17]: 61.3%
viability, T/C [18]: 47.7%
viability, T/C [19]: 49.4%
viability, T/C [20]: 49.5%
viability, T/C [21]: 45.3%
viability, T/C [22]: 48.6%
viability, T/C [23]: 42.8%
viability, T/C [24]: 35.4%
viability, T/C [25]: 36.6%
viability, T/C [26]: 39.9%
viability, T/C [27]: 34.5%
viability, T/C [28]: 33%
viability, T/C [29]: 35.9%
viability, T/C [30]: 21.2%
viability, T/C [31]: 15%
viability, T/C [32]: 15.4%
viability, T/C [33]: 18.4%
viability, T/C [34]: 18.8%
viability, T/C [35]: 19.6%
viability, T/C [36]: 8.61%

IC50 (second compound 0.0316 µM): > 100 nM
IC50 (second compound 0.1 µM): > 100 nM
IC50 (second compound 0.316 µM): > 100 nM
IC50 (second compound 1 µM): < 0.316 nM
IC50 (second compound 3.16 µM): < 0.316 nM
IC50 (second compound 10 µM): < 0.316 nM
SMILES: Cn1ncnc1[C@H]1c2n[nH]c(=O)c3cc(F)cc(c23)N[C@@H]1c1ccc(F)cc1 + Cc1nc(NC(=O)N2CCCC2C(N)=O)sc1-c1ccnc(C(C)(C)C(F)(F)F)c1
viability, T/C (second compound 0.0316 µM, first compound 0.000316 µM): 83.8%
viability, T/C (second compound 0.0316 µM, first compound 0.001 µM): 81.5%
viability, T/C [37]: 94.3%
viability, T/C [38]: 84.9%
viability, T/C [1]: 90.7%
viability, T/C [2]: 90.4%
viability, T/C (second compound 0.1 µM, first compound 0.000316 µM): 75.5%
viability, T/C (second compound 0.1 µM, first compound 0.001 µM): 78.6%
viability, T/C [39]: 78.5%
viability, T/C [40]: 80.2%
viability, T/C [7]: 80.8%
viability, T/C [8]: 78.2%
viability, T/C (second compound 0.316 µM, first compound 0.000316 µM): 54.5%
viability, T/C (second compound 0.316 µM, first compound 0.001 µM): 59.4%
viability, T/C [41]: 57.2%
viability, T/C [42]: 57.2%
viability, T/C [13]: 58.4%
viability, T/C [14]: 58%
viability, T/C (second compound 1 µM, first compound 0.000316 µM): 46.2%
viability, T/C (second compound 1 µM, first compound 0.001 µM): 43.4%
viability, T/C [43]: 40.3%
viability, T/C [44]: 41.5%
viability, T/C [19]: 44.9%
viability, T/C [20]: 45.1%
viability, T/C (second compound 3.16 µM, first compound 0.000316 µM): 33%
viability, T/C (second compound 3.16 µM, first compound 0.001 µM): 29.4%
viability, T/C [45]: 30%
viability, T/C [46]: 31.4%
viability, T/C [25]: 30.4%
viability, T/C [26]: 29%
viability, T/C (second compound 10 µM, first compound 0.000316 µM): 17.2%
viability, T/C (second compound 10 µM, first compound 0.001 µM): 18%
viability, T/C [47]: 16.3%
viability, T/C [48]: 13.6%
viability, T/C [31]: 18.8%
viability, T/C [32]: 12.8%
